These results are taken from patent US20240226115A1, “AXL INHIBITOR COMPOUNDS” (ARCUS BIOSCIENCES, INC., priority 2021, published 2024).

Molecules are shown by their SMILES.

In experiment [1] the target is T1, Axl (Homo sapiens, UniProt P30530).
T1 sequence (P30530 26-894): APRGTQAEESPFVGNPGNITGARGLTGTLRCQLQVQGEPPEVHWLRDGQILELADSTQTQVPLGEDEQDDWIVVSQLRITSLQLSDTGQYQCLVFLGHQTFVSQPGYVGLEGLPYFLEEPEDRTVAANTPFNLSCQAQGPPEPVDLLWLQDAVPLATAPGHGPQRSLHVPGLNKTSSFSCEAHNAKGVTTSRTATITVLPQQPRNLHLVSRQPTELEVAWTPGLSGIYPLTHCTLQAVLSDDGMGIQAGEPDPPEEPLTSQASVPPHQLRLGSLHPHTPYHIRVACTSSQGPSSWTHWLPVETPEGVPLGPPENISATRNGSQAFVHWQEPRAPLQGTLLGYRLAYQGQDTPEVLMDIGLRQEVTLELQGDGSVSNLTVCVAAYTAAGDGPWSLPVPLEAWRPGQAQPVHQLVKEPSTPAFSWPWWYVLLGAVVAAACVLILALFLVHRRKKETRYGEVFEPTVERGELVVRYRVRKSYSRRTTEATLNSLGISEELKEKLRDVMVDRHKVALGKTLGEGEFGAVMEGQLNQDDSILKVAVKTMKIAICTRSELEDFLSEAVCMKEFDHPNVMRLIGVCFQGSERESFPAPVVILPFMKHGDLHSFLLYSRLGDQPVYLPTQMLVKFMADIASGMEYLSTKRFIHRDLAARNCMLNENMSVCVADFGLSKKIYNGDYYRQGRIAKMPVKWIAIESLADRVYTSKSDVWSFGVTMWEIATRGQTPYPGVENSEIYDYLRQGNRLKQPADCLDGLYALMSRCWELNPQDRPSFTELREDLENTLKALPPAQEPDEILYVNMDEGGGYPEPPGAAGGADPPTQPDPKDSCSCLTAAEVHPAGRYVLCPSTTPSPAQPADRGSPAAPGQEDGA
The experiment is described as follows: Axl NanoBRET intracellular kinase assay (Cell Binding). Set-up: host or cells: HEK-293. The conditions noted are these: HEK-293 cells transfected with Axl-NanoLuc fusion vector; displacement of K-5 NanoBRET tracer. The essentials:
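Intracellular binding measured as loss of BRET (610 nm/450 nm) when compounds displace 0.35 μM K-5 tracer from Axl-NanoLuc in transfected HEK-293 cells.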

The target in experiment [2] is T1, Axl. The experiment is described as follows: HTRF KinEASE-TK biochemical potency, AXL. Also noted: purchased Invitrogen. The conditions noted are these: 5 nM AXL, 700 μM ATP. In short, it runs like this:
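Enzyme preincubated with compound 1 h at RT; final 5 nM AXL or 1 nM TYRO3/MER, 800 nM TK substrate-biotin, 700 μM ATP, HEPES pH 7.4, MgCl2, 1% DMSO, 2 h at RT. HTRF 665/620 ratio read after streptavidin-XL665/cryptate antibody detection; percent activity relative to DMSO and pre-stopped controls.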
Background: TR-FRET usually uses a lanthanide donor and a delayed reading to cut background.

Usually IC50 stands for the point on the concentration scale where inhibition reaches its midpoint. Consider `CC1(O)CCCCc2cc(-c3n[nH]c4ncc(-c5ccc6c(c5)CCN(C5CCCC5)CC6)cc34)ccc21` (stereo not drawn) [Example 27, 2-[5-(3-Cyclopentyl-2,3,4,5-tetrahydro-1H-3-benzazepin-7-yl)-1H-pyrazolo[3,4-b]pyridin-3-yl]-5-methyl-6,7,8,9-tetrahydro-5H-benzo[7]annulen-5-ol], for which the IC50 in experiment [1] is 100 to 1000 nM; in experiment [2] it was less than 100 nM.

On to `CC1(O)CCCOc2cc(-c3n[nH]c4ncc(-c5ccc6c(c5)CCN(C5CCCC5)CC6)cc34)ccc21` (stereo not drawn) [Example 28, (8-[5-(3-Cyclopentyl-2,3,4,5-tetrahydro-1H-3-benzazepin-7-yl)-1H-pyrazolo[3,4-b]pyridin-3-yl]-5-methyl-2,3,4,5-tetrahydro-1-benzoxepin-5-ol)], for which the values for the concentration for half-maximal inhibition (IC50) in experiment [1] and in experiment [2] were 100 to 1000 nM and less than 100 nM, respectively.

As to `C[C@@H]1CCCN1C1CCc2ccc(-c3cnc4[nH]nc(-c5ccc6c(c5)OCCC6(C)O)c4c3)cc2CC1` (stereo partly drawn) [Example 29, 4-Methyl-7-(5-{7-[(2R)-2-Methylpyrrolidin-1-yl]-6,7,8,9-tetrahydro-5H-benzo[7]annulen-2-yl}-1H-pyrazolo[3,4-b]pyridin-3-yl)-3,4-dihydro-2H-1-benzopyran-4-ol], the IC50 in experiment [1] and in experiment [2] was less than 100 nM throughout.

On to `CC1(O)CCc2cc(-c3n[nH]c4ncc(-c5ccc6c(c5)CC[C@@H](N5CCCC5)CC6)cc34)ccc21` (stereo partly drawn) [Example 30, 1-Methyl-5-{5-[(7S)-7-(pyrrolidin-1-yl)-6,7,8,9-tetrahydro-5H-benzo[7]annulen-2-yl]-1H-pyrazolo[3,4-b]pyridin-3-yl}-2,3-dihydro-1H-inden-1-ol], for which the IC50 in experiment [1] and in experiment [2] was less than 100 nM each time.

On to `CC1(O)CCOc2cc(-c3n[nH]c4ncc(-c5ccc6c(c5)CC[C@@H](N5CCCC5)CC6)cc34)ccc21` (stereo partly drawn) [Example 31, 4-Methyl-7-{5-[(7S)-7-(pyrrolidin-1-yl)-6,7,8,9-tetrahydro-5H-benzo[7]annulen-2-yl]-1H-pyrazolo[3,4-b]pyridin-3-yl}-3,4-dihydro-2H-1-benzopyran-4-ol], for which the 50% inhibitory concentration (IC50) in experiment [1] and in experiment [2] was less than 100 nM in each case.

For the molecule `CC1(C)NS(=O)(=O)c2cc(-c3n[nH]c4ncc(-c5ccc6c(c5)CCC(N5CCCC5)CC6)cc34)ccc21` (stereo not drawn) [Example 32, 3,3-Dimethyl-6-{5-[7-(pyrrolidin-1-yl)-6,7,8,9-tetrahydro-5H-benzo[7]annulen-2-yl]-1H-pyrazolo[3,4-b]pyridin-3-yl}-2,3-dihydro-1λ^6,2-benzothiazole-1,1-dione], the IC50 in experiment [1] and in experiment [2] was less than 100 nM each time.

As for `C[C@@H]1CCCN1C1CCc2ccc(-c3cnc4[nH]nc(-c5ccc6c(c5)S(=O)(=O)NC6(C)C)c4c3)cc2CC1` (stereo partly drawn) [Example 33, 3,3-Dimethyl-6-(5-{7-[(2R)-2-methylpyrrolidin-1-yl]-6,7,8,9-tetrahydro-5H-benzo[7]annulen-2-yl}-1H-pyrazolo[3,4-b]pyridin-3-yl)-2,3-dihydro-1λ^6,2-benzothiazole-1,1-dione], the 50% inhibitory concentration (IC50) in experiment [1] and in experiment [2] was less than 100 nM each time.

With `CC1(C)NS(=O)(=O)c2cc(-c3n[nH]c4ncc(-c5ccc6c(c5)CCC(N5CCC[C@@H]5CO)CC6)cc34)ccc21` (stereo partly drawn) [Example 34, 6-(5-{7-[(2R)-2-(Hydroxymethyl)pyrrolidin-1-yl]-6,7,8,9-tetrahydro-5H-benzo[7]annulen-2-yl}-1H-pyrazolo[3,4-b]pyridin-3-yl)-3,3-dimethyl-2,3-dihydro-1λ^6,2-benzothiazole-1,1-dione], the IC50 in experiment [1] and in experiment [2] was less than 100 nM in each case.

`CC1(C)COc2cc(-c3n[nH]c4ncc(-c5ccc6c(c5)CCC(N5CCCC5)CC6)cc34)ccc2C(=O)N1` (stereo not drawn) [Example 35, 3,3-Dimethyl-8-{5-[7-(pyrrolidin-1-yl)-6,7,8,9-tetrahydro-5H-benzo[7]annulen-2-yl]-1H-pyrazolo[3,4-b]pyridin-3-yl}-2,3,4,5-tetrahydro-1,4-benzoxazepin-5-one]: the IC50 in experiment [1] and in experiment [2] was less than 100 nM throughout.

Consider `C[C@@H]1CCCN1C1CCc2ccc(-c3cnc4[nH]nc(-c5ccc6c(c5)OCC5(CC5)NC6=O)c4c3)cc2CC1` (stereo partly drawn) [Example 36, 8-(5-{7-[(2R)-2-Methylpyrrolidin-1-yl]-6,7,8,9-tetrahydro-5H-benzo[7]annulen-2-yl}-1H-pyrazolo[3,4-b]pyridin-3-yl)-4,5-dihydro-2H-spiro[1,4-benzoxazepine-3,1′-cyclopropan]-5-one], for which the half-maximal inhibitory concentration (IC50) in experiment [1] and in experiment [2] was less than 100 nM in each case.

As to `C[C@@H]1CCCN1C1CCc2ccc(-c3cnc4[nH]nc(-c5ccc6c(c5)OCC5(CCC5)NC6=O)c4c3)cc2CC1` (stereo partly drawn) [Example 37, 8-(5-{7-[(2R)-2-Methylpyrrolidin-1-yl]-6,7,8,9-tetrahydro-5H-benzo[7]annulen-2-yl}-1H-pyrazolo[3,4-b]pyridin-3-yl)-4,5-dihydro-2H-spiro[1,4-benzoxazepine-3,1′-cyclobutan]-5-one], the IC50 in experiment [1] and in experiment [2] was less than 100 nM each time.

Take `C[C@@H]1CCCN1C1CCc2ccc(-c3cnc4[nH]nc(-c5ccc6c(c5)C(=O)NC6(C)C)c4c3)cc2CC1` (stereo partly drawn) [Example 38, 3,3-Dimethyl-6-(5-{7-[(2R)-2-methylpyrrolidin-1-yl]-6,7,8,9-tetrahydro-5H-benzo[7]annulen-2-yl}-1H-pyrazolo[3,4-b]pyridin-3-yl)-2,3-dihydro-1H-isoindol-1-one]: the IC50 in experiment [1] and in experiment [2] was less than 100 nM each time.

On to `C[C@H]1CCCN1C1Cc2ccc(-c3cnc4[nH]nc(-c5ccc6c(c5)OCC(C)(C)NC6=O)c4c3)cc2C1` (stereo partly drawn) [Example 39, 3,3-Dimethyl-8-(5-{2-[(2S)-2-methylpyrrolidin-1-yl]-2,3-dihydro-1H-inden-5-yl}-1H-pyrazolo[3,4-b]pyridin-3-yl)-2,3,4,5-tetrahydro-1,4-benzoxazepin-5-one], for which the IC50 in experiment [1] and in experiment [2] was less than 100 nM in each case.

On to `Cc1cc2c(cc1-c1n[nH]c3ncc(-c4ccc5c(c4)CCC(N4CCC[C@H]4C)CC5)cc13)OCCNC2=O` (stereo partly drawn) [Example 40, 7-Methyl-8-(5-{7-[(2R)-2-methylpyrrolidin-1-yl]-6,7,8,9-tetrahydro-5H-benzo[7]annulen-2-yl}-1H-pyrazolo[3,4-b]pyridin-3-yl)-2,3,4,5-tetrahydro-1,4-benzoxazepin-5-one], for which the half-inhibitory concentration (IC50) in experiment [1] and in experiment [2] was less than 100 nM throughout.

Take `Cc1c(-c2n[nH]c3ncc(-c4ccc5c(c4)CCC(N4CCC[C@H]4C)CC5)cc23)ccc2c1OCCNC2=O` (stereo partly drawn) [Example 41, 9-Methyl-8-(5-{7-[(2R)-2-methylpyrrolidin-1-yl]-6,7,8,9-tetrahydro-5H-benzo[7]annulen-2-yl}-1H-pyrazolo[3,4-b]pyridin-3-yl)-2,3,4,5-tetrahydro-1,4-benzoxazepin-5-one]: the IC50 in experiment [1] and in experiment [2] was less than 100 nM each time.

For the molecule `O=C1NCCOc2cc(-c3n[nH]c4ncc(-c5ccc6c(c5)CCC(NC5CCCC5)CC6)cc34)ccc21` (stereo not drawn) [Example 42, 8-{5-[7-(Cyclopentylamino)-6,7,8,9-tetrahydro-5H-benzo[7]annulen-2-yl]-1H-pyrazolo[3,4-b]pyridin-3-yl}-2,3,4,5-tetrahydro-1,4-benzoxazepin-5-one], the IC50 in experiment [1] and in experiment [2] was less than 100 nM in each case.

In the case of `C[C@H]1CCCN1C1CCc2ccc(-c3cnc4[nH]nc(-c5ccc6c(c5)OCCNC6=O)c4c3)cc2CC1` (stereo partly drawn) [Example 43, 8-(5-{7-[(2S)-2-Methylpyrrolidin-1-yl]-6,7,8,9-tetrahydro-5H-benzo[7]annulen-2-yl}-1H-pyrazolo[3,4-b]pyridin-3-yl)-2,3,4,5-tetrahydro-1,4-benzoxazepin-5-one], the concentration for half-maximal inhibition (IC50) in experiment [1] and in experiment [2] was less than 100 nM throughout.

As for `C[C@@H]1CCCN1C1CCc2ccc(-c3cnc4[nH]nc(-c5ccc6c(c5)OCCNC6=O)c4c3)cc2CC1` (stereo partly drawn) [Example 44, 8-(5-{7-[(2R)-2-Methylpyrrolidin-1-yl]-6,7,8,9-tetrahydro-5H-benzo[7]annulen-2-yl}-1H-pyrazolo[3,4-b]pyridin-3-yl)-2,3,4,5-tetrahydro-1,4-benzoxazepin-5-one], the half-inhibitory concentration (IC50) in experiment [1] and in experiment [2] was less than 100 nM in each case.
